Assay results: ChEMBL document CHEMBL1124752, “Cyclobut-A and cyclobut-G: broad-spectrum antiviral agents with potential utility for the therapy of AIDS” (J Med Chem, 1990)
Values after ≈ are worked out from the molar mass of the structure shown.

Columns and labels:
[1] = test system: Human immunodeficiency virus 1; assay: Tested for the determination of percentage protection at 100 uM against HIV-1 in ATH8 cells; type: functional, ATH-8
[2] = test system: Human immunodeficiency virus 1; assay: Tested for the determination of percentage protection at 10 uM against HIV-1 in ATH8 cells; type: functional, ATH-8
[3] = test system: Human immunodeficiency virus 1; assay: Tested for the determination of percentage protection at 1 uM against HIV-1 in ATH8 cells; type: functional, ATH-8
[4] = test system: Human immunodeficiency virus 1; assay: Tested for the determination of percentage protection at 50 uM against HIV-1 in ATH8 cells; type: functional, ATH-8
Human betaherpesvirus 5 [5] = assay: In vitro antiviral activity tested against herpesvirus, HCMV, EC strain by plaque reduction assay in human foreskin fibroblasts; type: functional
Human betaherpesvirus 5 [6] = assay: In vitro antiviral activity tested against herpesvirus, HCMV, LA strain by plaque reduction assay in human foreskin fibroblasts; type: functional
Human betaherpesvirus 5 [7] = assay: In vitro antiviral activity tested against herpesvirus, HCMV, AD169 strain by plaque reduction assay in human foreskin fibroblasts; type: functional
Human betaherpesvirus 5 [8] = assay: In vitro antiviral activity tested against herpesvirus, HCMV, CH strain by plaque reduction assay in human foreskin fibroblasts; type: functional
Human betaherpesvirus 5 [9] = assay: In vitro antiviral activity tested against herpesvirus, HCMV, Davis strain by plaque reduction assay in human foreskin fibroblasts; type: functional
[10] = test system: Human immunodeficiency virus 1; assay: Tested for the determination of percentage toxicity at 1 uM against HIV-1 in ATH8 cells; type: organism-based; settings: human immunodeficiency virus 1, ath-8, 1 µM
[11] = test system: Human immunodeficiency virus 1; assay: Tested for the determination of percentage toxicity at 50 uM against HIV-1 in ATH8 cells; type: organism-based; settings: human immunodeficiency virus 1, ath-8, 50 µM
Human alphaherpesvirus 1 [12] = assay: Tested for the effective dose required to inhibit HSV-1 in infected mice; type: functional
Human alphaherpesvirus 1 [13] = assay: Tested for mean day to death of nonsurvivors against HSV-1 infection in mice at 4.7 mg/kg/day; type: functional
Human alphaherpesvirus 1 [14] = assay: In vitro antiviral activity against herpesvirus, HSV-1, E-377 strain by plaque reduction assay in human foreskin fibroblasts; type: functional
[15] = test system: Human immunodeficiency virus 1; assay: Tested for the determination of percentage toxicity at 10 uM against HIV-1 in ATH8 cells; type: organism-based; settings: human immunodeficiency virus 1, ath-8, 10 µM
Human alphaherpesvirus 1 [16] = assay: Number of survivors per number of HSV-1 infected mice treated with 4.7 mg/kg/day; 6/10; type: functional
Human alphaherpesvirus 2 [17] = assay: Number of survivors per number of HSV-2 infected mice treated with 31.2 mg/kg/day; 9/10; type: functional
Human alphaherpesvirus 2 [18] = assay: Tested for mean day to death of nonsurvivors against HSV-2 encephalitis in mice at 31.2 mg/kg/day; type: functional
Human alphaherpesvirus 2 [19] = assay: Tested for mean day to death of nonsurvivors against HSV-2 encephalitis in mice at 7.8 mg/kg/day; type: functional
Human alphaherpesvirus 2 [20] = assay: Number of survivors per number of HSV-2 infected mice treated with 125 mg/kg/day; 10/10; type: functional
Human alphaherpesvirus 2 [21] = assay: Number of survivors per number of HSV-2 infected mice treated with 7.8 mg/kg/day; 5/10; type: functional
Human alphaherpesvirus 2 [22] = assay: Tested for the effective dose required to inhibit HSV-2 encephalitis in infected mice; type: functional
Human alphaherpesvirus 2 [23] = assay: In vitro antiviral activity tested against herpesvirus, HSV-2, HEET strain by plaque reduction assay in human foreskin fibroblasts; type: functional
Human alphaherpesvirus 2 [24] = assay: In vitro antiviral activity tested against herpesvirus, HSV-2, JEN strain by plaque reduction assay in human foreskin fibroblasts; type: functional
Human alphaherpesvirus 2 [25] = assay: In vitro activity tested against herpesvirus, HSV-2, MS strain by plaque reduction assay in human foreskin fibroblasts; type: functional
[26] = test system: Human immunodeficiency virus 1; assay: Tested for the determination of percentage toxicity at 100 uM against HIV-1 in ATH8 cells; type: organism-based; settings: human immunodeficiency virus 1, ath-8, 100 µM
Human alphaherpesvirus 1 [27] = assay: Number of survivors per number of HSV-1 infected mice treated with 18.7 mg/kg/day; 10/10; type: functional
Human alphaherpesvirus 1 [28] = assay: Number of survivors per number of HSV-1 infected mice treated with 75 mg/kg/day; 10/10; type: functional
Human alphaherpesvirus 2 [29] = assay: In vitro antiviral activity tested against herpesvirus, HSV-2, X-79 strain by plaque reduction assay in human foreskin fibroblasts; type: functional
Murid betaherpesvirus 1 [30] = assay: Tested for the effective dose required to inhibit systemic MCMV in infected mice; type: functional
Murid betaherpesvirus 1 [31] = assay: Number of survivors per number of systemic MCMV infected mice treated with 33.4 mg/kg/day; 14/15; type: functional
Murid betaherpesvirus 1 [32] = assay: In vitro antiviral activity tested against herpesvirus, MCMV, Smith strain by plaque reduction assay in mouse embryo fibroblasts; type: functional
Murid betaherpesvirus 1 [33] = assay: Tested for mean day to death of nonsurvivors against systemic MCMV infection in mice at 11.2 mg/kg/day; type: functional
Murid betaherpesvirus 1 [34] = assay: Tested for mean day to death of nonsurvivors against systemic MCMV infection in mice at 3.8 mg/kg/day; type: functional
Murid betaherpesvirus 1 [35] = assay: Tested for mean day to death of nonsurvivors against systemic MCMV infection in mice at 33.4 mg/kg/day; type: functional
Murid betaherpesvirus 1 [36] = assay: Number of survivors per number of systemic MCMV infected mice treated with 100 mg/kg/day; 15/15; type: functional
Murid betaherpesvirus 1 [37] = assay: Number of survivors per number of systemic MCMV infected mice treated with 11.2 mg/kg/day; 14/15; type: functional
Murid betaherpesvirus 1 [38] = assay: Number of survivors per number of systemic MCMV infected mice treated with 3.8 mg/kg/day; 4/15; type: functional
Human alphaherpesvirus 3 [39] = assay: In vitro antiviral activity tested against herpesvirus, VZV, Ellen strain by plaque reduction assay in human foreskin fibroblasts; type: functional
Human alphaherpesvirus 3 [40] = assay: In vitro antiviral activity tested against herpesvirus, VZV, OKA strain by plaque reduction assay in human foreskin fibroblasts; type: functional
Homo sapiens = species on record: Homo sapiens; assay: The drug concentration was determined to reduce proliferation of human foreskin fibroblasts to 50% of untreated controls in proliferation assay; type: functional; settings: read-out: ID50 (the source's name)
[41] = read-out: ED50 (the source's name)
[42] = read-out: ID50 (the source's name)

SMILES: Nc1ncnc2c1ncn2[C@@H]1C[C@H](CO)[C@H]1CO
- Protection [1]: 52%
- Protection [2]: 63%
- Protection [3]: 47%
- Protection [4]: 48%
- EC50 (Human betaherpesvirus 5 [5]; [41]): 2.2 µg/mL (≈ 8.83 µM)
- IC50 (Human betaherpesvirus 5 [5]; [42]): > 100 µg/mL
- EC50 (Human betaherpesvirus 5 [6]; [41]): 1 µg/mL (≈ 4.01 µM)
- IC50 (Human betaherpesvirus 5 [6]; [42]): > 100 µg/mL
- EC50 (Human betaherpesvirus 5 [7]; [41]): 3.7 µg/mL (≈ 14.8 µM)
- IC50 (Human betaherpesvirus 5 [7]; [42]): > 100 µg/mL
- EC50 (Human betaherpesvirus 5 [8]; [41]): 0.9 µg/mL (≈ 3.61 µM)
- IC50 (Human betaherpesvirus 5 [8]; [42]): > 100 µg/mL
- EC50 (Human betaherpesvirus 5 [9]; [41]): 0.9 µg/mL (≈ 3.61 µM)
- IC50 (Human betaherpesvirus 5 [9]; [42]): > 100 µg/mL
- Cytotoxity [10]: 11%
- Cytotoxity [11]: 42%
- ED50 (Human alphaherpesvirus 1 [12]): < 4.7 mg/kg/day
- MDD (Human alphaherpesvirus 1 [13]): 7.5
- EC50 (Human alphaherpesvirus 1 [14]; [41]): 1 µg/mL (≈ 4.01 µM)
- IC50 (Human alphaherpesvirus 1 [14]; [42]): > 100 µg/mL
- Cytotoxity [15]: 32%
- Survivors / treated (Human alphaherpesvirus 1 [16]): 6
- Survivors / treated (Human alphaherpesvirus 2 [17]): 9
- MDD (Human alphaherpesvirus 2 [18]): 10
- MDD (Human alphaherpesvirus 2 [19]): 10.8
- Survivors / treated (Human alphaherpesvirus 2 [20]): 10
- Survivors / treated (Human alphaherpesvirus 2 [21]): 5
- ED50 (Human alphaherpesvirus 2 [22]): 9.7 mg/kg/day
- EC50 (Human alphaherpesvirus 2 [23]; [41]): 2.2 µg/mL (≈ 8.83 µM)
- IC50 (Human alphaherpesvirus 2 [23]; [42]): > 100 µg/mL
- EC50 (Human alphaherpesvirus 2 [24]; [41]): 2.3 µg/mL (≈ 9.23 µM)
- IC50 (Human alphaherpesvirus 2 [24]; [42]): > 100 µg/mL
- EC50 (Human alphaherpesvirus 2 [25]; [41]): 1.6 µg/mL (≈ 6.42 µM)
- IC50 (Human alphaherpesvirus 2 [25]; [42]): > 100 µg/mL
- Cytotoxity [26]: 44%
- Survivors / treated (Human alphaherpesvirus 1 [27]): 10
- Survivors / treated (Human alphaherpesvirus 1 [28]): 10
- EC50 (Human alphaherpesvirus 2 [29]; [41]): 1.8 µg/mL (≈ 7.22 µM)
- IC50 (Human alphaherpesvirus 2 [29]; [42]): > 100 µg/mL
- ED50 (Murid betaherpesvirus 1 [30]): 2.7 mg/kg/day
- Survivors / treated (Murid betaherpesvirus 1 [31]): 14
- EC50 (Murid betaherpesvirus 1 [32]; [41]): 0.05 µg/mL (≈ 0.201 µM)
- IC50 (Murid betaherpesvirus 1 [32]; [42]): > 100 µg/mL
- MDD (Murid betaherpesvirus 1 [33]): 6
- MDD (Murid betaherpesvirus 1 [34]): 5.3
- MDD (Murid betaherpesvirus 1 [35]): 5
- Survivors / treated (Murid betaherpesvirus 1 [36]): 15
- Survivors / treated (Murid betaherpesvirus 1 [37]): 14
- Survivors / treated (Murid betaherpesvirus 1 [38]): 4
- EC50 (Human alphaherpesvirus 3 [39]; [41]): 2.1 µg/mL (≈ 8.42 µM)
- IC50 (Human alphaherpesvirus 3 [39]; [42]): > 100 µg/mL
- EC50 (Human alphaherpesvirus 3 [40]; [41]): 2 µg/mL (≈ 8.02 µM)
- IC50 (Human alphaherpesvirus 3 [40]; [42]): > 100 µg/mL
- IC50 (Homo sapiens): 7.7 µg/mL (≈ 30.9 µM)
